Like-named read-outs stand apart in the source and are kept apart here. Marks after values point to notes of the source that are not given here. Non-standard residues stand in square brackets, D forms with d. Residues, ends and D or L forms follow the SMILES beside them. ξ: configuration not given here. ξOrn(N(OH)Ac) = CC(=O)N(O)CCCC(N)C(=O)O
Columns and labels:
[1] = Solubility of ferrichrysin in water compared with other iron compounds; conditions: for Precipitate: 0.1 g in 1 ml, 37° C., 90 min, centrifuged, visual
Description: The solubility of ferrichrysin was compared with the solubilities of other iron compounds. Water-soluble heme iron, ferric citrate and ferrichrysin which were used in Example 1 were used as iron compounds. 0.1 g of each of these iron compounds was dissolved in 1 ml of each buffer having a pH of 2 or 7, and then the solutions were incubated at 37° C. for 90 min. A glycine/hydrochloric acid buffer was used as the pH 2 buffer, and a phosphate buffer was used as the pH 7 buffer. The concentration of buffer agent(s) in each buffer was adjusted to 0.1 mol/l. After being incubated, each buffer was centrifuged to visually confirm the presence or absence of precipitate. Further, the iron concentration in the supernatant of each buffer was measured by atomic absorption.

[2] = test system: SD male rats having iron deficiency anemia; assay: Measurement of serum iron concentration; type: in vivo, rat; conditions: 3 weeks free feeding, food iron content 35 ppm; mean±SD of five rats
Description: Serum was prepared from the blood wholly exsanguinated from the rats of each group after the rats had been given their iron-containing food, so as to measure iron concentrations in the serums by a usual method.

[3] = test system: SD male rats having iron deficiency anemia; assay: Measurement of iron concentration in the liver; type: in vivo, rat; conditions: 3 weeks free feeding, food iron content 35 ppm; mean±SD of five rats
Description: Rats of the control group were fed food 1 (ferric citrate) from the beginning, i.e. through to the end. At the end of the experiment, livers were removed after perfusion of saline into the portal vein to exclude the blood; they were weighed and freeze-dried. The dried liver was subsequently incinerated and subjected to atomic absorption, so as to measure the iron concentration in the liver. Further, the water content of the liver was calculated, and the concentration of iron stored in the liver of the body was determined based on the iron concentration in the dried liver and the water content of the liver.

[4] = test system: SD male rats having iron deficiency anemia; assay: Measurement of hemoglobin concentration in the blood; type: in vivo, rat; conditions: mean±SD of five rats
Excerpt: The rats in the control group were fed iron-containing food 1 (ferric citrate) during the study.

[5] = test system: SD male rats having iron deficiency anemia; conditions: rat, in vivo
Excerpt: Five four-week-old SD male rats as the control group were fed iron-containing food 1.
The fifteen rats having iron deficiency anemia were subsequently divided into three groups, and were freely fed iron-containing foods 1, 2 and 3, respectively, for 3 weeks. As the iron source, iron-containing food 1 contains ferric citrate; iron-containing food 2 contains water-soluble heme iron; and iron-containing food 3 contains ferrichrysin.
Measurements were made by a usual method of the concentrations of protein, ALT (alanine aminotransferase), AST (aspartate aminotransferase) and creatinine in the serums of the groups of rats which were fed iron-containing food 1 (ferric citrate), food 2 (heme iron) and food 3 (ferrichrysin) after the development of iron deficiency anemia, as well as the rats in the control group which were fed food 1 (ferric citrate) from the beginning.

[6] = test system: SD male rats having iron deficiency anemia; conditions: rat, in vivo; remark: listed apart in the source
[7] = Thermal and pH stabilities of ferrichrysin (absorbance at 430 nm before/after sterilization); type: physicochemical; conditions: 0.25 mg/ml; for Absorbance at 430 nm after sterilization: 20 min, 120° C., 200 kPa
Description: Ferrichrysin is known to show an absorption maximum at 430 nm. Ferrichrysin was tested for pH and thermal stabilities utilizing this property.
Ferrichrysin prepared from a rice koji extract in the manner as described above was dissolved in ultrapure water to a concentration of 2.5 mg/ml. The resulting solution was subsequently diluted to give a ferrichrysin concentration of 0.25 mg/ml using each of the following buffers. A glycine-hydrochloric acid buffer was used for a pH 2 or pH 3 buffer; a acetate buffer was used for a pH 4 or pH 5 buffer; a phosphate buffer was used for a pH 6 or pH 7 buffer; a tris-hydrochloric acid buffer was used for a pH 8 buffer; and a glycine-sodium hydroxide buffer was used for a pH 9 or pH 10 buffer.
Each ferrichrysin solution was placed in a screw-cap test tube, and then the test tube was sealed. The solution was subsequently sterilized by a process of steaming under pressure for 20 min at a temperature of 120° C. and a pressure of 200 kPa. The absorbance of each solution at 430 nm was measured prior to and after the sterilization.

[8] = for Proportion of the iron concentration after the reaction to the initial iron concentration (1 mg/ml): tannic acid, 37° C., 3 hr, filtrate, cut-off 10000
Description: (§1) Ferrichrysin was tested for its reactivity with tannic acid and phytic acid, the typical iron uptake inhibitor, so as to compare its reactivity with that of other iron compounds with these iron uptake inhibitor.
(§2) A 0.6% tannic acid solution and a 0.6% phytic acid solution were also prepared. The pH of each of these solutions was adjusted with hydrochloric acid or sodium hydroxide to 2.0, 4.0, 6.0 or 8.0.
(§3) The iron-compound solutions were mixed with each of the tannic acid and phytic acid solutions at a volume ratio of 1:9, and then the mixtures were incubated at 37° C. for 3 hr, so as to react the iron compounds with each of these iron uptake inhibitor. The resulting solutions were centrifuged at 15000 rpm for 5 min, and then the supernatant of each solution was ultrafiltrated using membranes having a molecular weight cut-off of 10000. The iron concentration in each filtrate was measured by atomic absorption.

[9] = for Proportion of the iron concentration after the reaction to the initial iron concentration (1 mg/ml): phytic acid, 37° C., 3 hr, filtrate, cut-off 10000
Description: as §1, §2, §3

Water solubility, in words [1]: very high water solubility
Precipitate ([1]; pH 2.0): No
Precipitate ([1]; pH 7.0): No
Creatinine [5]: 0.63 ± 0.06 mg/dL
Serum protein [5]: 67.6 ± 4.1 mg/mL
Average food intake [6]: 366.3 g/3 weeks
Absorbance at 430 nm before sterilization ([7]; pH 2.0): 0.709
Absorbance at 430 nm after sterilization ([7]; pH 2.0): 0.366
Absorbance at 430 nm before sterilization ([7]; pH 3.0): 0.742
Absorbance at 430 nm after sterilization ([7]; pH 3.0): 0.721
Absorbance at 430 nm before sterilization ([7]; pH 4.0): 0.738
Absorbance at 430 nm after sterilization ([7]; pH 4.0): 0.743
Absorbance at 430 nm before sterilization ([7]; pH 5.0): 0.732
Absorbance at 430 nm after sterilization ([7]; pH 5.0): 0.748
Absorbance at 430 nm before sterilization ([7]; pH 6.0): 0.743
Absorbance at 430 nm after sterilization ([7]; pH 6.0): 0.746
Absorbance at 430 nm before sterilization ([7]; pH 7.0): 0.764
Absorbance at 430 nm after sterilization ([7]; pH 7.0): 0.774
Absorbance at 430 nm before sterilization ([7]; pH 8.0): 0.758
Absorbance at 430 nm after sterilization ([7]; pH 8.0): 0.747
Absorbance at 430 nm before sterilization ([7]; pH 9.0): 0.765
Absorbance at 430 nm after sterilization ([7]; pH 9.0): 0.767
Absorbance at 430 nm before sterilization ([7]; pH 10.0): 0.769
Absorbance at 430 nm after sterilization ([7]; pH 10.0): 0.772
Reactivity with iron-insolubilizing component, in words ([8]; pH 2): low reactivity
Proportion of the iron concentration after the reaction to the initial iron concentration (1 mg/ml) ([8]; pH 2.0): 80.5%
Proportion of the iron concentration after the reaction to the initial iron concentration (1 mg/ml) ([8]; pH 4.0): 71.8%
Proportion of the iron concentration after the reaction to the initial iron concentration (1 mg/ml) ([8]; pH 6.0): 76.1%
Proportion of the iron concentration after the reaction to the initial iron concentration (1 mg/ml) ([8]; pH 8.0): 81.9%
Reactivity with iron-insolubilizing component, in words ([9]; pH 2): low reactivity
Proportion of the iron concentration after the reaction to the initial iron concentration (1 mg/ml) ([9]; pH 2.0): 85.7%
Proportion of the iron concentration after the reaction to the initial iron concentration (1 mg/ml) ([9]; pH 4.0): 100.6%
Proportion of the iron concentration after the reaction to the initial iron concentration (1 mg/ml) ([9]; pH 6.0): 101.8%
Proportion of the iron concentration after the reaction to the initial iron concentration (1 mg/ml) ([9]; pH 8.0): 100.3%
SMILES: CC(=O)N([O-])CCCC1NC(=O)CNC(=O)C(CO)NC(=O)C(CO)NC(=O)C(CCCN([O-])C(C)=O)NC(=O)C(CCCN([O-])C(C)=O)NC1=O.[Fe+3] (stereo not drawn) [Ferrichrysin, ferrichrysin] (cyclo(G[ξOrn(N(OH)Ac)][ξOrn(N(OH)Ac)][ξOrn(N(OH)Ac)]SS); configuration not given here)
Serum iron concentration after feeding iron-containing food [2]: 116.7 ± 24.1 µg/dL
Iron concentration in the liver [3]: 39.3 ± 7.6 ppm
Hemoglobin concentration in the blood, after feeding iron-containing food ([4]; 3 weeks free feeding, food iron content 35 ppm): 14.3 ± 0.3 g/dL
Hemoglobin concentration in the blood, before feeding iron-containing food ([4]; baseline after 35 days iron-deficient food): 6.4 ± 0.9 g/dL
ALT [5]: 17.7 ± 2.3^a Karmen
AST [5]: 72.3 ± 3.2^b Karmen
Side effects on the body (liver and kidney function), in words [5]: no harmful side effects
Body weight gain [6]: 70.1 ± 8.3 g/3 weeks

Source: US20080113899A1, “Iron Supplement and Utilization of the Same” (GEKKEIKAN SAKE CO., LTD., priority 2004, published 2008)
